Laboratory results from patent US8097637B2, “Benzoyl-piperidine derivatives as dual modulators of the 5-HT2A and D3 receptors” (Hoffmann-La Roche Inc., priority 2007, dated 2012).

Columns and labels:
[1] = biological target: T1, human D2 dopamine receptor (Homo sapiens, UniProt P14416); assay: Radioligand binding ([3H]-spiperone) to cloned human D2 receptor, HEK-293 EBNA cell membranes; conditions: 0.7 nM [3H]-spiperone, 1 h at RT, Cheng-Prusoff
T1 construct: expressed in transfected cells; host or cells: HEK-293 EBNA cells, transient transfection; membrane preparation
Description: (§1) Membrane Preparation for Human D2, Human D3 and Human 5-HT2A Receptors
(§2) HEK-293 EBNA cells were transiently transfected with expression plasmids encoding for the human D2 or D3 dopamine- or for the human 5-HT2A serotonin receptor, respectively. The cells were harvested 48 h post-transfection, washed three times with cold PBS and stored at −80° C. prior to use. The pellet was suspended in cold 50 mM Tris-HCl buffer containing 10 mM EDTA (pH 7.4) and homogenized with a Polytron (Kinematica AG, Basel, Switzerland) for 20-30 sec at 12.000 rpm. After centrifugation at 48.000×g for 30 min at 4° C., the pellet was resuspended in cold 10 mM Tris-HCl buffer containing 0.1 mM EDTA (pH 7.4), homogenized, and centrifuged as above. This pellet was further resuspended in a smaller volume of ice cold 10 mM Tris-HCl buffer containing 0.1 mM EDTA (pH 7.4) and homogenized with a Polytron for 20-30 sec at 12.000 rpm. The protein content of this homogenate was determined with the Bio-Rad (Bradford) Protein Assay (Biorad Laboratories GmbH, München, Germany) according to the instructions of the manufacturer using gamma globulin as the standard. This homogenate was stored at −80° C. in aliquots and thawed immediately prior to use.
(§3) Radioligand Binding Assay Conditions
(§4) Aliquots of membrane preparations were thawed at RT, resuspended in assay buffer (D2, D3: 50 mM Tris-HCl, 120 mM NaCl, 5 mM MgCl2, 1 mM EDTA, 5 mM KCl, 1.5 mM CaCl2, pH=7.4; 5-HT2A: 50 mM Tris-HCl, 10 mM MgCl2, 1 mM EGTA, pH=7.4), homogenized with a Polytron for 20-30 sec at 12.000 rpm and adjusted to a final concentration of approximately 7.5 μg protein/well (D2, D3) and 15 μg protein/well (5-HT2A), respectively.
(§5) The binding affinity (Ki) of the compounds was determined using radioligand binding. Membranes were incubated in a total volume of 200 μl with a fixed concentration of radioligand (final concentration approximately 0.7 nM [^3H]-spiperone for D2, 0.5 nM [^3H]-spiperone for D3, and 1.1 nM [^3H]-ketanserin for 5-HT2A) and ten concentrations of test compound in ranging between 10 μM-0.1 nM for 1 h at RT. At the end of the incubation, the reaction mixtures were filtered on to unifilter 96-well white microplates with bonded GF/C filters (Packard BioScience, Zürich, Switzerland; preincubated for 1 h in 0.1% polyethylenimine (PEI) in assay buffer) with a Filtermate 196 harvester (Packard BioScience) and washed 3 times with cold assay buffer. The nonspecific binding was determined with equally composed reaction mixtures in the presence of 10 μM unlabeled spiperone. Per well 45 μl of Microscint 40 (Perkin Elmer, Schwerzenbach, Switzerland) was added, plates for sealed, shaken for 20 min and counted for 3 min on a Topcount Microplate Scintillation Counter (Canberra Packard SA, Zürich, Switzerland) with quenching correction.
(§6) The CPM value for each duplicate of a concentration of competing compound was averaged (yl), then the % specific binding was calculated according to the equation (((yl-non-specific)/(total binding-non-specific))×100). Graphs were plotted with the % specific binding using XLfit, a curve fitting program that iteratively plots the data using Levenburg Marquardt algorithm. The single site competition analysis equation used was y=A+((B−A)/(1+((x/C)^D))), where y is the % specific binding, A is the minimum y, B is the maximum y, C is the IC50, x is the log10 of the concentration of the competing compound and D is the slope of the curve (the Hill Coefficient). […] The affinity constant (Ki) was calculated using the Cheng-Prusoff equation Ki=(IC50/1+([L]/Kd), where [L] is the concentration of radioligand and Kd is the dissociation constant of the radioligand at the receptor as determined by the saturation isotherm.

[2] = biological target: T2, human 5-HT2A serotonin receptor (Homo sapiens, UniProt P28223); assay: Radioligand binding ([3H]-ketanserin) to cloned human 5-HT2A receptor, HEK-293 EBNA cell membranes; conditions: 1.1 nM [3H]-ketanserin, 1 h at RT, Cheng-Prusoff
T2 construct: expressed in transfected cells; host or cells: HEK-293 EBNA cells, transient transfection; membrane preparation
Description: as §1
as §2, with “The” for “HEK-293 EBNA cells were transiently transfected with expression plasmids encoding for the human D2 or D3 dopamine- or for the human 5-HT2A serotonin receptor, respectively. The”
as §3, §4
The binding affinity (Ki) of the compounds was determined using radioligand binding. […] The nonspecific binding was determined with equally composed reaction mixtures in the presence of 10 μM unlabeled spiperone. Per well 45 μl of Microscint 40 (Perkin Elmer, Schwerzenbach, Switzerland) was added, plates for sealed, shaken for 20 min and counted for 3 min on a Topcount Microplate Scintillation Counter (Canberra Packard SA, Zürich, Switzerland) with quenching correction.
as §6

[3] = biological target: T3, human D3 dopamine receptor (Homo sapiens, UniProt P35462); assay: Radioligand binding ([3H]-spiperone) to cloned human D3 receptor, HEK-293 EBNA cell membranes; conditions: 0.5 nM [3H]-spiperone, 1 h at RT, Cheng-Prusoff
T3 construct: expressed in transfected cells; host or cells: HEK-293 EBNA cells, transient transfection; membrane preparation
Description: The ability of the compounds to bind to the 5-HT2A, D3 and D2 receptors was determined using radioligand binding to cloned receptors selectively expressed in HEK-293 EBNA cells.
as §1, §2, §3, §4, §5, §6

T1 sequence (P14416 whole entry): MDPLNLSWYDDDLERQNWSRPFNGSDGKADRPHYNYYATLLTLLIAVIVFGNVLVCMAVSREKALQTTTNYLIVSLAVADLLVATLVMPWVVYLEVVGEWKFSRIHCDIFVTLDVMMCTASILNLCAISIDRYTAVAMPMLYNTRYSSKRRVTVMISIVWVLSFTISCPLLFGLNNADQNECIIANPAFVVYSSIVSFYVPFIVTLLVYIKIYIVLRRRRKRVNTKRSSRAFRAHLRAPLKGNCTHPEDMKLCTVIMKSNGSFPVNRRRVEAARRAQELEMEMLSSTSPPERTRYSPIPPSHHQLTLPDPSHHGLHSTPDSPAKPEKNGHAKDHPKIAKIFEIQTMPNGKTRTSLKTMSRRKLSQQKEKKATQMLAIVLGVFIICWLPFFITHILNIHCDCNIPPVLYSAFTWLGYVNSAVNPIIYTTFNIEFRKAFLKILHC
T3 sequence (P35462 whole entry): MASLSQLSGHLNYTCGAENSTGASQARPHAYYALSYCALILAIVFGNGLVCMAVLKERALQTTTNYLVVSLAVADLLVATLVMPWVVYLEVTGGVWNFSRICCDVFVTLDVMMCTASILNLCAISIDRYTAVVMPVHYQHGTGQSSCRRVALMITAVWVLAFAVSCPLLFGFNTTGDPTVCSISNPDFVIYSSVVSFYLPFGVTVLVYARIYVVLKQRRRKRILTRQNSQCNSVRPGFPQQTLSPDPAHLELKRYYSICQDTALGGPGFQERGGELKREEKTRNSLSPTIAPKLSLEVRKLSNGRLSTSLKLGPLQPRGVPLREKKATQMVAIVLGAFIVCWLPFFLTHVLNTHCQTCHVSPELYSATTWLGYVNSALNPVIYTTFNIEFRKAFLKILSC
T2 sequence (P28223 whole entry): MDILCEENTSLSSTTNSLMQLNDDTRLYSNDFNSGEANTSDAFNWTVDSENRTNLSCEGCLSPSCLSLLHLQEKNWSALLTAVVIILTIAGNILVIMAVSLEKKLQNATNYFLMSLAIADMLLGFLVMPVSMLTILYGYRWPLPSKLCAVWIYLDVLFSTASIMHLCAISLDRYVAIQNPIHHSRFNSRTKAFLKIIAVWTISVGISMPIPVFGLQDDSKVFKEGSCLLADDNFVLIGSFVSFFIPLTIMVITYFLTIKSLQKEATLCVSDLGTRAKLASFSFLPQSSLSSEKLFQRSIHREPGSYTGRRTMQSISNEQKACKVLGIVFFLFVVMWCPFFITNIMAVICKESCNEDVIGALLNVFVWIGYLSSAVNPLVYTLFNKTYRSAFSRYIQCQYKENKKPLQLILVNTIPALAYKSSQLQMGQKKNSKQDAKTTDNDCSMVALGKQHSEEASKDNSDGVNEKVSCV

Row | SMILES | Ki [1] | Ki [2] | Ki [3]
1 | O=C(CC1CCC(OC2CCOC2)CC1)N[C@H]1CC[C@H](CCN2CCC(C(=O)c3ccc(F)cc3)CC2)CC1 (mixture of isomers) [Example 17, rac-N-Trans (4-{2-[4-(4-Fluoro-benzoyl)-piperidin-1-yl]-ethyl}-cyclohexyl)-2-[4-(tetrahydro-furan-3-yloxy)-cyclohexyl]-acetamide] | 2.61 µM | 0.011 µM | 0.04 µM
2 | CCO[C@H]1CC[C@H](CC(=O)N[C@H]2CC[C@H](CCN3CCC(C(=O)c4ccc(F)cc4)CC3)CC2)C1 (racemic) [Example 18, rac-2-(trans-3-Ethoxy-cyclopentyl)-N-trans-(4-{2-[4-(4-fluoro-benzoyl)-piperidin-1-yl]-ethyl}-cyclohexyl)-acetamide] | 1.94 µM | 0.028 µM | 0.042 µM
3 | COCC1CCC(CC(=O)N[C@H]2CC[C@H](CCN3CCC(C(=O)c4ccc(F)cc4)CC3)CC2)C1 (mixture of isomers) [Example 28, rac-N-trans (4-{2-[4-(4-Fluoro-benzoyl)-piperidin-1-yl]-ethyl}-cyclohexyl)-2-(3-methoxymethyl-cyclopentyl)-acetamide] | 1.29 µM | 0.007 µM | 0.033 µM
4 | COC1CCC(CCC(=O)N[C@H]2CC[C@H](CCN3CCC(C(=O)c4ccc(F)cc4)CC3)CC2)CC1 (mixture of isomers) [Example 29, rac-N-trans (4-{2-[4-(4-Fluoro-benzoyl)-piperidin-1-yl]-ethyl}-cyclohexyl)-3-(4-methoxy-cyclohexyl)-propionamide] | 1.41 µM | 0.007 µM | 0.041 µM
5 | CO[C@@H]1CCC[C@@H](CC(=O)N[C@H]2CC[C@H](CCN3CCC(C(=O)c4ccc(F)cc4)CC3)CC2)C1 (single isomer, unassigned) [Example 16, N-trans (4-{2-[4-(4-Fluoro-benzoyl)-piperidin-1-yl]-ethyl}-cyclohexyl)-2-((1R,3R)-3-methoxy-cyclohexyl)-acetamide or N-trans (4-{2-[4-(4-fluoro-benzoyl)-piperidin-1-yl]-ethyl}-cyclohexyl)-2-((1S,3S)-3-methoxy-cyclohexyl)-acetamide] | 1.25 µM | 0.007 µM | 0.035 µM
6 | C[C@]1(O)CC[C@H](CC(=O)N[C@H]2CC[C@H](CCN3CCC(C(=O)c4ccc(F)cc4)CC3)CC2)CC1 (single isomer, unassigned) [Example 23, N-trans (4-{2-[4-(4-Fluoro-benzoyl)-piperidin-1-yl]-ethyl}-cyclohexyl)-2-(4-trans-hydroxy-4-methyl-cyclohexyl)-acetamide or N-trans (4-{2-[4-(4-fluoro-benzoyl)-piperidin-1-yl]-ethyl}-cyclohexyl)-2-(4-cis-hydroxy-4-methyl-cyclohexyl)-acetamide] | 1.3 µM | 0.007 µM | 0.049 µM
7 | C[C@]1(O)CC[C@@H](CC(=O)N[C@H]2CC[C@H](CCN3CCC(C(=O)c4ccc(F)cc4)CC3)CC2)CC1 (single isomer, unassigned) [Example 24, N-trans (4-{2-[4-(4-Fluoro-benzoyl)-piperidin-1-yl]-ethyl}-cyclohexyl)-2-(4-cis-hydroxy-4-methyl-cyclohexyl)-acetamide or N-trans (4-{2-[4-(4-fluoro-benzoyl)-piperidin-1-yl]-ethyl}-cyclohexyl)-2-(4-trans-hydroxy-4-methyl-cyclohexyl)-acetamide] | 1.2 µM | 0.009 µM | 0.043 µM
8 | CO[C@H]1CC[C@@H](CC(=O)N[C@H]2CC[C@H](CCN3CCC(C(=O)c4ccc(F)cc4)CC3)CC2)CC1 [Example 2, N-trans (4-{2-[4-(4-Fluoro-benzoyl)-piperidin-1-yl]-ethyl}-cyclohexyl)-2-cis (4-methoxy-cyclohexyl)-acetamide] | 1.51 µM | 0.006 µM | 0.028 µM
9 | CO[C@H]1CC[C@H](CC(=O)N[C@H]2CC[C@H](CCN3CCC(C(=O)c4ccc(F)cc4)CC3)CC2)CC1 [Example 3, N-trans (4-{2-[4-(4-Fluoro-benzoyl)-piperidin-1-yl]-ethyl}-cyclohexyl)-2-trans (4-methoxy-cyclohexyl)-acetamide] | 1.28 µM | 0.006 µM | 0.024 µM
10 | O=C(CC1CCC2(CC1)OCCO2)N[C@H]1CC[C@H](CCN2CCC(C(=O)c3ccc(F)cc3)CC2)CC1 [Example 12, 2-(1,4-Dioxa-spiro[4.5]dec-8-yl)-N-trans (4-{2-[4-(4-fluoro-benzoyl)-piperidin-1-yl]-ethyl}-cyclohexyl)-acetamide] | 1.74 µM | 0.006 µM | 0.024 µM
11 | CCO[C@H]1CC[C@H](CC(=O)N[C@H]2CC[C@H](CCN3CCC(C(=O)c4ccc(F)cc4)CC3)CC2)CC1 [Example 13, Trans-2-(4-Ethoxy-cyclohexyl)-N-trans (4-{2-[4-(4-fluoro-benzoyl)-piperidin-1-yl]-ethyl}-cyclohexyl)-acetamide] | 1.4 µM | 0.013 µM | 0.033 µM
12 | COC[C@H]1CC[C@H](CC(=O)N[C@H]2CC[C@H](CCN3CCC(C(=O)c4ccc(F)cc4)CC3)CC2)CC1 [Example 21, N-trans (4-{2-[4-(4-Fluoro-benzoyl)-piperidin-1-yl]-ethyl}-cyclohexyl)-2-trans (4-methoxymethyl-cyclohexyl)-acetamide] | 1.01 µM | 0.005 µM | 0.025 µM
13 | COC[C@H]1C[C@H](CC(=O)N[C@H]2CC[C@H](CCN3CCC(C(=O)c4ccc(F)cc4)CC3)CC2)C1 [Example 25, N-trans (4-{2-[4-(4-Fluoro-benzoyl)-piperidin-1-yl]-ethyl}-cyclohexyl)-2-trans (3-methoxymethyl-cyclobutyl)-acetamide] | 1.86 µM | 0.009 µM | 0.027 µM
14 | COC[C@H]1C[C@@H](CC(=O)N[C@H]2CC[C@H](CCN3CCC(C(=O)c4ccc(F)cc4)CC3)CC2)C1 [Example 26, N-trans (4-{2-[4-(4-Fluoro-benzoyl)-piperidin-1-yl]-ethyl}-cyclohexyl)-2-cis (3-methoxymethyl-cyclobutyl)-acetamide] | 2.03 µM | 0.006 µM | 0.026 µM
